This passage reports IC50 results from patent publication US20090247559A1 (Exelixis, Inc., priority 2007, published 2009).

As a reminder, the IC50 is the midpoint of a concentration-inhibition curve.

Where only a bound is given, the exact number is not on record here.

Test [1] concerns the target PIM (PIM-1, PIM-2, and/or PIM-3). The test is described as follows: PIM-1, PIM-2 and PIM-3 inhibition, biochemical chemiluminescence assays (Kinase Glo, IC50 determination). The conditions noted are these: Table 1 activity class; PIM refers to PIM-1, PIM-2, and/or PIM-3; read-out: PIM IC50 (Activity B).
The target in another test is CK2 (Homo sapiens, UniProt P68400). The test is described as follows: CK2 inhibition, biochemical chemiluminescence holoenzyme assay (Kinase Glo, IC50 determination). The conditions noted are these: Table 1 activity class; symbol given only if active; read-out: CK2 IC50 (Activity C). The gist of the method: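 Holoenzyme CK2 assay; compounds pre-incubated with substrate and enzyme, then reacted 150 min at 24-27° C. Remaining ATP measured as luminescence with Kinase Glo, and IC50 derived from the signal.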
Chain of CK2 (P68400 whole entry): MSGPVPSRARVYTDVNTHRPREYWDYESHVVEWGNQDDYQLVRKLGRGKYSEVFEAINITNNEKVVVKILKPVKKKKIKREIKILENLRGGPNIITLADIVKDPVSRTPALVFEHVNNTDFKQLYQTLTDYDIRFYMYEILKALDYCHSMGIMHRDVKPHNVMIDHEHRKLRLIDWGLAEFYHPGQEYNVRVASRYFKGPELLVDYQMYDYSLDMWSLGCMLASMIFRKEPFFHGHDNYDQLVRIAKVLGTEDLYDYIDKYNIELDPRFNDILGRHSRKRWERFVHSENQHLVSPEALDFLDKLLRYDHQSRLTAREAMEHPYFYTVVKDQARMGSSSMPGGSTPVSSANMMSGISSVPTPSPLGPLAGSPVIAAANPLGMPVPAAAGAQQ
Chain of CK2 (P67870 whole entry partner): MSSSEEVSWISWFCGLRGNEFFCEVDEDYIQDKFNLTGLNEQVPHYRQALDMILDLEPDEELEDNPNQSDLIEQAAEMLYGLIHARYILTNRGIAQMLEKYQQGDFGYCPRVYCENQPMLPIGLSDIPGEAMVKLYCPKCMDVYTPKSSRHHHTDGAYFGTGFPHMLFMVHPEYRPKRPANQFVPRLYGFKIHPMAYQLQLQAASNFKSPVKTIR

On to `O=c1[nH]c(CNCc2ccccn2)nc2c1oc1ccc(Br)cc12` [Compound 254, 8-bromo-2-{[(pyridin-2-ylmethyl)amino]methyl}[1]benzofuro[3,2-d]pyrimidin-4(3H)-one], for which the 50% inhibitory concentration (IC50) (in test [1]; at CK2) was less than 10 µM each time.

For the molecule `CCCCNc1ccc2oc3c(=O)[nH]c(CN4CC[C@H](O)C4)nc3c2c1` [Compound 446, 8-(butylamino)-2-{[(3S)-3-hydroxypyrrolidin-1-yl]methyl}[1]benzofuro[3,2-d]pyrimidin-4(3H)-one], the concentration for half-maximal inhibition (IC50) (in test [1]; on CK2) was less than 10 µM in each case.

As for `CCOC(=O)Cc1ccc2oc3c(=O)[nH]c(CN4CC[C@H](O)C4)nc3c2c1` [Compound 491, ethyl (2-{[(3S)-3-hydroxypyrrolidin-1-yl]methyl}-4-oxo-3,4-dihydro[1]benzofuro[3,2-d]pyrimidin-8-yl)acetate], the IC50 (in test [1]; at CK2) was less than 10 µM in each case.

As to `CCc1nccn1Cc1nc2c(oc3ccc(Br)cc32)c(=O)[nH]1` [Compound 149, 8-bromo-2-[(2-ethyl-1H-imidazol-1-yl)methyl][1]benzofuro[3,2-d]pyrimidin-4(3H)-one], the IC50 (in test [1]; at CK2) was less than 10 µM each time.

For the molecule `COc1ccc(CCNc2ccc3oc4c(=O)[nH]c(CN5CC[C@H](O)C5)nc4c3c2)cc1OC` [Compound 474, 8-({2-[3,4-bis(methyloxy)phenyl]ethyl}amino)-2-{[(3S)-3-hydroxypyrrolidin-1-yl]methyl}[1]benzofuro[3,2-d]pyrimidin-4(3H)-one], the IC50 (in test [1]; at CK2) was less than 10 µM throughout.

Turning to `O=c1[nH]c(Cn2ccnc2-c2ccccc2)nc2c1oc1ccc(Br)cc12` [Compound 176, 8-bromo-2-[(2-phenyl-1H-imidazol-1-yl)methyl][1]benzofuro[3,2-d]pyrimidin-4(3H)-one], the IC50 (in test [1]; at CK2) was less than 10 µM each time.

For the molecule `O=c1[nH]c(-c2ccc(OCC3CNCCO3)cc2)nc2c1oc1ccc(Br)cc12` (stereo not shown) [Compound 359, 8-Bromo-2-{4-[(morpholin-2-ylmethyl)oxy]phenyl}[1]benzofuro[3,2-d]pyrimidin-4(3H)-one], the IC50 (in test [1]; at CK2) was less than 10 µM in each case.

For `COc1cccc(CNCc2nc3c(oc4ccc(Br)cc43)c(=O)[nH]2)c1` [Compound 255, 8-bromo-2-[({[3-(methyloxy)phenyl]methyl}amino)methyl][1]benzofuro[3,2-d]pyrimidin-4(3H)-one], the IC50 (in test [1]; on CK2) was less than 10 µM throughout.

Regarding `O=c1[nH]c(CN(CCO)CCO)nc2c1oc1ccc(Br)cc12` [Compound 410, 2-{[bis(2-hydroxyethyl)amino]methyl}-8-bromo[1]benzofuro[3,2-d]pyrimidin-4(3H)-one], the IC50 (in test [1]; at CK2) was less than 10 µM in each case.

Take `CCc1ccccc1-c1nc2c(oc3ccc(Br)cc32)c(=O)[nH]1` [Compound 77, 8-bromo-2-(2-ethylphenyl)[1]benzofuro[3,2-d]pyrimidin-4(3H)-one]: the IC50 (in test [1]; on CK2) was less than 10 µM throughout.

For `C[C@H](c1ccccc1)N1C[C@H](c2nc3c(oc4ccc(Br)cc43)c(=O)[nH]2)CC1=O` [Compound 282, 8-bromo-2-{(3R)-5-oxo-1-[(1R)-1-phenylethyl]pyrrolidin-3-yl}[1]benzofuro[3,2-d]pyrimidin-4(3H)-one], the IC50 (in test [1]; on CK2) was less than 10 µM each time.

Turning to `NC[C@H]1CC[C@H](c2nc3c(oc4ccc(Br)cc43)c(=O)[nH]2)CC1` [Compound 376, 2-[trans-4-(Aminomethyl)cyclohexyl]-8-bromo[1]benzofuro[3,2-d]pyrimidin-4(3H)-one], the IC50 (in test [1]; at CK2) was less than 10 µM throughout.

Regarding `O=c1[nH]c(Cn2ccnc2)nc2c1oc1ccc(Br)cc12` [Compound 6, 8-bromo-2-(1H-imidazol-1-ylmethyl)[1]benzofuro[3,2-d]pyrimidin-4(3H)-one], the half-inhibitory concentration (IC50) (in test [1]; on CK2) was less than 10 µM each time.

Consider `CC(=O)N1CCC(c2nc3c(oc4ccc(Br)cc43)c(=O)[nH]2)CC1` [Compound 203, 2-(1-acetylpiperidin-4-yl)-8-bromo[1]benzofuro[3,2-d]pyrimidin-4(3H)-one], for which the IC50 (in test [1]; on CK2) was less than 10 µM each time.

Regarding `CN(C)c1ccccc1CNCc1nc2c(oc3ccc(Br)cc32)c(=O)[nH]1` [Compound 10, 8-bromo-2-[({[2-(dimethylamino)phenyl]methyl}amino)methyl][1]benzofuro[3,2-d]pyrimidin-4(3H)-one], the IC50 (in test [1]; at CK2) was less than 10 µM throughout.

On to `O=C(Nc1ccc(-c2nc3c(oc4ccc(Br)cc43)c(=O)[nH]2)c(Cl)c1)C1CCCC1` [Compound 251, N-[4-(8-bromo-4-oxo-3,4-dihydro[1]benzofuro[3,2-d]pyrimidin-2-yl)-3-chlorophenyl]cyclopentanecarboxamide], for which the IC50 (in test [1]; at CK2) was less than 10 µM throughout.

Take `O=C(Nc1ccc(-c2nc3c(oc4ccc(Br)cc43)c(=O)[nH]2)c(Cl)c1)c1ccoc1` [Compound 341, N-[4-(8-bromo-4-oxo-3,4-dihydro[1]benzofuro[3,2-d]pyrimidin-2-yl)-3-chlorophenyl]furan-3-carboxamide]: the half-inhibitory concentration (IC50) (in test [1]; at CK2) was less than 10 µM in each case.

`O=c1[nH]c(CCN2CCCC2)nc2c1oc1ccc(Br)cc12` [Compound 105]: the half-inhibitory concentration (IC50) (in test [1]; at CK2) was less than 10 µM each time.

In the case of `COc1cccc2oc3c(=O)[nH]c(-c4ccc5[nH]nc(C)c5c4)nc3c12` [Compound 170, 2-(3-methyl-1H-indazol-5-yl)-9-(methyloxy)[1]benzofuro[3,2-d]pyrimidin-4(3H)-one], the IC50 (in test [1]; at CK2) was less than 10 µM in each case.

On to `COC(=O)c1ccc(-c2nc3c(oc4ccc(Br)cc43)c(=O)[nH]2)c(Cl)c1` [Compound 146, methyl 4-(8-bromo-4-oxo-3,4-dihydro[1]benzofuro[3,2-d]pyrimidin-2-yl)-3-chlorobenzoate], for which the IC50 (in test [1]; on CK2) was less than 10 µM in each case.

Take `O=C(Nc1ccc(-c2nc3c(oc4ccc(Br)cc43)c(=O)[nH]2)c(Cl)c1)c1ccc2cccnc2n1` [Compound 405, N-[4-(8-bromo-4-oxo-3,4-dihydro[1]benzofuro[3,2-d]pyrimidin-2-yl)-3-chlorophenyl]-1,8-naphthyridine-2-carboxamide]: the IC50 (in test [1]; on CK2) was less than 10 µM in each case.

As for `COC(=O)c1ccc(C(=O)Nc2ccc(-c3nc4c(oc5ccc(Br)cc54)c(=O)[nH]3)c(Cl)c2)nc1` [Compound 334, methyl 6-({[4-(8-bromo-4-oxo-3,4-dihydro[1]benzofuro[3,2-d]pyrimidin-2-yl)-3-chlorophenyl]amino}carbonyl)pyridine-3-carboxylate], the IC50 (in test [1]; on CK2) was less than 10 µM in each case.

On to `O=c1[nH]c(CN2CCN(c3ccccc3)CC2)nc2c1oc1ccc(Br)cc12` [Compound 260, 8-bromo-2-[(4-phenylpiperazin-1-yl)methyl][1]benzofuro[3,2-d]pyrimidin-4(3H)-one], for which the IC50 (in test [1]; on CK2) was less than 10 µM throughout.

Take `O=c1[nH]c(-c2ccc(N3CCNCC3)cc2)nc2c1oc1ccc(Br)cc12` [Compound 303, 8-Bromo-2-(4-piperazin-1-ylphenyl)[1]benzofuro[3,2-d]pyrimidin-4(3H)-one]: the IC50 (in test [1]; on CK2) was less than 10 µM each time.

Consider `O=c1[nH]c(-c2cc(Cl)ccc2Cl)nc2c1oc1ccc(Br)cc12` [Compound 37, 8-Bromo-2-(2,5-dichlorophenyl)[1]benzofuro[3,2-d]pyrimidin-4(3H)-one], for which the IC50 (in test [1]; at CK2) was less than 10 µM throughout.

In the case of `O=c1[nH]c(CNc2ccccc2)nc2c1oc1ccc(Br)cc12` [Compound 16, 8-bromo-2-[(phenylamino)methyl][1]benzofuro[3,2-d]pyrimidin-4(3H)-one], the IC50 (in test [1]; on CK2) was less than 10 µM in each case.

As to `CC(=O)N[C@H]1CCN(Cc2nc3c(oc4ccc(Br)cc43)c(=O)[nH]2)C1` [Compound 365, N-{(3S)-1-[(8-bromo-4-oxo-3,4-dihydro[1]benzofuro[3,2-d]pyrimidin-2-yl)methyl]pyrrolidin-3-yl}acetamide], the IC50 (in test [1]; on CK2) was less than 10 µM throughout.

As to `CN1CCC(CNc2ccc(-c3nc4c(oc5ccc(Br)cc54)c(=O)[nH]3)c(Cl)c2)CC1` [Compound 163, 8-bromo-2-(2-chloro-4-{[(1-methylpiperidin-4-yl)methyl]amino}phenyl)[1]benzofuro[3,2-d]pyrimidin-4(3H)-one], the IC50 (in test [1]; at CK2) was less than 10 µM in each case.

Consider `O=c1[nH]c(CN2CCC[C@@H](O)C2)nc2c1oc1ccc(Br)cc12` [Compound 402, 8-bromo-2-{[(3R)-3-hydroxypiperidin-1-yl]methyl}[1]benzofuro[3,2-d]pyrimidin-4(3H)-one], for which the IC50 (in test [1]; on CK2) was less than 10 µM throughout.

As for `Nc1ccc(-c2nc3c(oc4ccc(Br)cc43)c(=O)[nH]2)cc1` [Compound 354, 2-(4-Aminophenyl)-8-bromo[1]benzofuro[3,2-d]pyrimidin-4(3H)-one], the IC50 (in test [1]; at CK2) was less than 10 µM each time.

As to `O=c1[nH]c(CN2CC[C@H](O)C2)nc2c1oc1ccc(CCCO)cc12` [Compound 455, 8-(3-hydroxypropyl)-2-{[(3S)-3-hydroxypyrrolidin-1-yl]methyl}[1]benzofuro[3,2-d]pyrimidin-4(3H)-one], the IC50 (in test [1]; at CK2) was less than 10 µM each time.

Regarding `O=C(C1CCN(Cc2nc3c(oc4ccc(Br)cc43)c(=O)[nH]2)C1)N1CCOCC1` (stereo not shown) [Compound 267, 8-bromo-2-{[3-(morpholin-4-ylcarbonyl)pyrrolidin-1-yl]methyl}[1]benzofuro[3,2-d]pyrimidin-4(3H)-one], the IC50 (in test [1]; at CK2) was less than 10 µM in each case.
